Results taken from patent US10392348B2, “2-oxo-3,4-dihydroquinoline compounds as plant growth regulators” (Syngenta Participations AG, priority 2015, dated 2019).
Read-outs that look alike come from different tables or passages of the source.

Tests used:
[1] = tested on: soybean plants (variety S20-G7); assay: Reduced plant water use in soybean (foliar spray, repeated weighing of pots); assay type: in vivo; details: vs negative control; for change in vivo at 500 µM / change in vivo at 31.25 µM / change in vivo at 125 µM: Glycine max, foliar; for % WU 0 DAA AM*: 0 DAA a.m.
Method in brief: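 Compounds in blank EC formulation diluted in water with EXTRAVON 1 g/20 L, foliar-sprayed on 12-day-old soybean in growth chambers. Water use from repeated pot weighing at a.m./p.m. periods over 0-2 DAA, summed to cumulative 0-2.5 DAA; ANCOVA with pre-application baseline covariate, relative to blank-formulation control.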

[2] = 0 h, Table B1, sprayed at 500 μM, 0 DAA a.m. (10:30-12:50), read-out: % WU 0 DAA AM
[3] = 24 h, Table B1, sprayed at 500 μM, 1 DAA a.m. (7:30-12:50), read-out: % WU 1DAA AM
[4] = 24 h, Table B1, sprayed at 500 μM, 1 DAA p.m. (14:00-19:50), read-out: % WU 1DAA PM
[5] = 24 h, Table B2, rate 31.25 uM, 1 DAA a.m., read-out: % WU 1DAA AM
[6] = 24 h, Table B2, rate 31.25 uM, 1 DAA p.m., read-out: % WU 1DAA PM
[7] = 24 h, Table B2, rate 125 uM, 1 DAA a.m., read-out: % WU 1DAA AM
[8] = 24 h, Table B2, rate 125 uM, 1 DAA p.m., read-out: % WU 1DAA PM
[9] = 24 h, Table B2, rate 500 uM, 1 DAA a.m., read-out: % WU 1DAA AM
[10] = 24 h, Table B2, rate 500 uM, 1 DAA p.m., read-out: % WU 1DAA PM
[11] = 48 h, Table B1, sprayed at 500 μM, 2 DAA a.m. (07:30-12:50), read-out: % WU 2 DAA AM
[12] = 48 h, Table B1, sprayed at 500 μM, 2 DAA p.m. (14:00-19:50), read-out: % WU 2 DAA PM
[13] = 48 h, Table B2, rate 31.25 uM, 2 DAA a.m., read-out: % WU 2 DAA AM
[14] = 48 h, Table B2, rate 31.25 uM, 2 DAA p.m., read-out: % WU 2 DAA PM
[15] = 48 h, Table B2, rate 125 uM, 2 DAA a.m., read-out: % WU 2 DAA AM
[16] = 48 h, Table B2, rate 125 uM, 2 DAA p.m., read-out: % WU 2 DAA PM
[17] = 48 h, Table B2, rate 500 uM, 2 DAA a.m., read-out: % WU 2 DAA AM
[18] = 48 h, Table B2, rate 500 uM, 2 DAA p.m., read-out: % WU 2 DAA PM
[19] = 60 h, Table B1, sprayed at 500 μM, cumulative total WU (0-2.5 DAA), read-out: % WU Total 0 to 2.5 DAA
[20] = 60 h, Table B2, rate 31.25 uM, cumulative total WU (0-2.5 DAA), read-out: % WU Total 0 to 2.5 DAA
[21] = 60 h, Table B2, rate 125 uM, cumulative total WU (0-2.5 DAA), read-out: % WU Total 0 to 2.5 DAA
[22] = 60 h, Table B2, rate 500 uM, cumulative total WU (0-2.5 DAA), read-out: % WU Total 0 to 2.5 DAA

| Structure (SMILES) | change in vivo at 500 µM [1, 2] [%] | change in vivo at 500 µM [1, 3] [%] | change in vivo at 500 µM [1, 4] [%] | change in vivo at 500 µM [1, 11] [%] | change in vivo at 500 µM [1, 12] [%] | change in vivo at 500 µM [1, 19] [%] | melting point [°C] | also measured |
| --- | --- | --- | --- | --- | --- | --- | --- | --- |
| CCN1C(=O)CCc2cc(CNS(=O)(=O)c3ccccc3)ccc21 [Compound 2.001, N-[(1-ethyl-2-oxo-3,4-dihydroquinolin-6-yl)methyl]benzenesulfonamide] | -35.3 | -29.1 | -28.1 | -19.6 | -14.3 | -25.7 | 114 to 124 | change in vivo at 31.25 µM [1, 5]: -1.8%; change in vivo at 31.25 µM [1, 6]: -0.9%; change in vivo at 125 µM [1, 7]: -10.1%; change in vivo at 125 µM [1, 8]: -10.9%; change in vivo at 500 µM [1, 9]: -36.3%; change in vivo at 500 µM [1, 10]: -33.2%; change in vivo at 31.25 µM [1, 13]: -2.7%; change in vivo at 31.25 µM [1, 14]: -1.5%; change in vivo at 125 µM [1, 15]: -11.7%; change in vivo at 125 µM [1, 16]: -10.1%; change in vivo at 500 µM [1, 17]: -24.2%; change in vivo at 500 µM [1, 18]: -19.5%; change in vivo at 31.25 µM [1, 20]: -1.7%; change in vivo at 125 µM [1, 21]: -11.1%; change in vivo at 500 µM [1, 22]: -31.8%; % WU 0 DAA AM* ([1]; Table B2, rate 31.25 uM): −0.7%; % WU 0 DAA AM* ([1]; Table B2, rate 125 uM): −10.4%; % WU 0 DAA AM* ([1]; Table B2, rate 500 uM): −41.2% |
| CCN1C(=O)CCc2cc(CNS(=O)(=O)c3ccccc3F)ccc21 [Compound 2.007, N-[(1-ethyl-2-oxo-3,4-dihydroquinolin-6-yl)methyl]-2-fluoro-benzenesulfonamide] | -14.1 | -7.3 | -6.6 | -8.8 | -5.7 | -8.1 | 155 to 163 | – |
| CCN1C(=O)CCc2cc(CNS(=O)(=O)c3ccc(F)cc3)ccc21 [Compound 2.009, N-[(1-ethyl-2-oxo-3,4-dihydroquinolin-6-yl)methyl]-4-fluoro-benzenesulfonamide] | -5.3 | -2 | -1.2 | -3.1 | -1 | -2.3 | 190 to 191 | – |
| CCN1C(=O)CCc2cc(CNS(=O)(=O)c3ccc(OC)cc3)ccc21 [Compound 2.010, N-[(1-ethyl-2-oxo-3,4-dihydroquinolin-6-yl)methyl]-4-methoxy-benzenesulfonamide] | -15.2 | -2.6 | -1.7 | -3.6 | -2.4 | -4.3 | 147 to 150 | – |
| CCN1C(=O)CCc2cc(CNS(=O)(=O)c3ccc(C)cc3C)ccc21 [Compound 2.014, N-[(1-ethyl-2-oxo-3,4-dihydroquinolin-6-yl)methyl]-2,4-dimethyl-benzenesulfonamide] | -2.8 | -0.2 | -0.9 | -0.9 | -1.7 | -1.1 | 199 to 200 | – |
| CCCN1C(=O)CCc2cc(CNS(=O)(=O)c3ccccc3)ccc21 [Compound 3.001, N-[(2-oxo-1-propyl-3,4-dihydroquinolin-6-yl)methyl]benzenesulfonamide] | -15 | -9.9 | -6.7 | -7.2 | -5.8 | -8.8 | 159 to 161 | change in vivo at 31.25 µM [1, 5]: -6.9%; change in vivo at 31.25 µM [1, 6]: -5.4%; change in vivo at 125 µM [1, 7]: -15.7%; change in vivo at 125 µM [1, 8]: -15.3%; change in vivo at 500 µM [1, 9]: -36.4%; change in vivo at 500 µM [1, 10]: -33.3%; change in vivo at 31.25 µM [1, 13]: -5.8%; change in vivo at 31.25 µM [1, 14]: -2.2%; change in vivo at 125 µM [1, 15]: -9.3%; change in vivo at 125 µM [1, 16]: -6.3%; change in vivo at 500 µM [1, 17]: -21.4%; change in vivo at 500 µM [1, 18]: -15.1%; change in vivo at 31.25 µM [1, 20]: -5.7%; change in vivo at 125 µM [1, 21]: -14.8%; change in vivo at 500 µM [1, 22]: -31.1%; % WU 0 DAA AM* ([1]; Table B2, rate 31.25 uM): −4.4%; % WU 0 DAA AM* ([1]; Table B2, rate 125 uM): −23.7%; % WU 0 DAA AM* ([1]; Table B2, rate 500 uM): −44.6% |
| CCCN1C(=O)CCc2cc(CNS(=O)(=O)c3ccccc3C)ccc21 [Compound 3.011, 2-methyl-N-[(2-oxo-1-propyl-3,4-dihydroquinolin-6-yl)methyl]benzenesulfonamide] | -3.6 | -3.6 | -2.3 | -3.6 | -2.4 | -3 | 163 to 165 | – |
| CCCN1C(=O)CCc2cc(CNS(=O)(=O)c3ccc(C)cc3)ccc21 [Compound 3.012, 4-methyl-N-[(2-oxo-1-propyl-3,4-dihydroquinolin-6-yl)methyl]benzenesulfonamide] | -43.9 | -1.8 | 2.1 | 1.7 | 3 | -5.8 | 153 to 154 | – |
| CCCN1C(=O)CCc2cc(CNS(=O)(=O)c3ccc(C(F)(F)F)cc3)ccc21 [Compound 3.015, N-[(2-oxo-1-propyl-3,4-dihydroquinolin-6-yl)methyl]-4-(trifluoromethyl)benzenesulfonamide] | – | – | – | – | – | – | 138 to 140 | – |
| CCCN1C(=O)CCc2cc(CNS(=O)(=O)c3ccc(OC(C)C)cc3)ccc21 [Compound 3.016, 4-isopropoxy-N-[(2-oxo-1-propyl-3,4-dihydroquinolin-6-yl)methyl]benzenesulfonamide] | -3.6 | -1.3 | -0.5 | -1.1 | 0 | -1.2 | 138 to 139 | – |
| CCCN1C(=O)CCc2cc(CNS(=O)(=O)/C=C/c3ccc(C)cc3)ccc21 [Compound 3.059, (E)-N-[(2-oxo-1-propyl-3,4-dihydroquinolin-6-yl)methyl]-2-(p-tolyl)ethenesulfonamide] | – | – | – | – | – | – | 172 to 174 | – |
| CCCN1C(=O)CCc2cc(CNS(=O)(=O)/C=C/c3cccc(Br)c3)ccc21 [Compound 3.070, (E)-2-(3-bromophenyl)-N-[(2-oxo-1-propyl-3,4-dihydroquinolin-6-yl)methyl]ethenesulfonamide] | – | – | – | – | – | – | 148 to 153 | – |
